Assay results taken from ChEMBL document CHEMBL1142428, “Noreupenifeldin, a tropolone from an unidentified ascomycete” (J Nat Prod, 2008).
Values after ≈ are worked out from the molar mass of the structure shown. Active and inactive are the calls of the source. No cut-off for these calls is given here.

Legend:
Haemonchus contortus = test: Anthelmintic activity against Haemonchus contortus assessed as reduction in L3 larval motility; assay type: functional
Stromelysin-1 = Stromelysin-1 (Homo sapiens, UniProt P08254); test: Inhibition of stromelysin mediated beta-casein cleavage
Chain of Stromelysin-1 (P08254 whole entry): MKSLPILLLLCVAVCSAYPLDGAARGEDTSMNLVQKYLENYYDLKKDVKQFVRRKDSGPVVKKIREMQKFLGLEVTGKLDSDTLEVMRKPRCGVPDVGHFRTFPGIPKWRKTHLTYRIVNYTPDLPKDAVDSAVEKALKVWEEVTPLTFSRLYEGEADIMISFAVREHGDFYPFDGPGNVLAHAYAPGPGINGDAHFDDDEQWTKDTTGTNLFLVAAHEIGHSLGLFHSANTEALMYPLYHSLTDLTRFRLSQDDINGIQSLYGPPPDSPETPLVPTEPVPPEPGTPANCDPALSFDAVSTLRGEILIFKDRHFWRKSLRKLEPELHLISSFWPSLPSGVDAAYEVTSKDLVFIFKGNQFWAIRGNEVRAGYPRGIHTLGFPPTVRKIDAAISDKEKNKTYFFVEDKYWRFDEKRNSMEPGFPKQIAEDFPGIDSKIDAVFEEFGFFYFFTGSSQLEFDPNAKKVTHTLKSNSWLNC

Row | Compound | Activity (Haemonchus contortus) | EC90 (Haemonchus contortus) [µg/mL] | IC50 (Stromelysin-1) [µM]
1 | Cc1cc(=O)c(O)cc2c1C[C@@H]1CC(C)(C)/C=C/C[C@@]3(C)Oc4cc(O)cc(C)c4C[C@@H]3C[C@@H](O)[C@]1(C)O2 | inactive |  | 
2 | Cc1cc(=O)c(O)cc2c1C[C@@H]1CC(C)(C)/C=C/C[C@@]3(C)Oc4cc(O)c(=O)cc(C)c4C[C@@H]3C[C@@H](O)[C@]1(C)O2 [EUPENIFELDIN] |  | 50 (≈ 91.1 µM) | 
3 | Cc1cc(=O)c(O)cc2c1C[C@H]1CC(C)(C)/C=C/C[C@@]3(C)Oc4cc(O)c(=O)cc(C)c4C[C@@H]3C[C@H](O)[C@]1(C)O2 [PYCNIDIONE] |  | 83 (≈ 151 µM) | 31
4 | IVERMECTIN |  | 0.18 | 
